In patent US20120208781A1, “AMINOGLYCOSIDE DOSING REGIMENS” (Achaogen, Inc., priority 2009, published 2012):
Like-named read-outs stand apart in the source and are kept apart here. Blank lines part the entries; values can stand above or below the compound they belong to.

Tests used:
rat kidney [1] = experiment: Rat nephrotoxicity model: kidney histopathology (H&E); format: in vivo, Sprague-Dawley rats; settings: rats, 14 d once-daily
Description: This rat nephrotoxicity study design used 14 days of once-daily dosing of aminoglycosides in adult Sprague-Dawley rats. Rats were allowed full access to food and water, and aminoglycosides were dosed subcutaneously at 1 mL/kg dosing volume, formulated in water. Nephrotoxicity was assessed by monitoring changes in serum markers of glomerular filtration rate (GFR), namely blood urea nitrogen (BUN) and serum creatinine. Microscopic examination of kidney slices after fixation and hematoxylin and eosin (H&E) staining was also utilized, scoring for tubular dilation, cellular casts, interstitial inflammation, and regenerative changes to the tubules.

[2] = rat, in vivo
Description: The AGs were administered to the rats according to the dose levels depicted in Table 6. The animals of Groups 11-13 were housed until day 15 even though their dosing ended on day 5, such that all animals were necropsied on the same day. Blood was collected in EDTA at days 0, 6, 11, and 15. 750 uL blood samples were collected and aliquoted into a lithium heparin tube and an EDTA tube. Clinical chemistry analysis was performed using the Idexx VETTEST 8008 system. Kidney samples were embedded in paraffin, sectioned, stained with hematoxylin and eosin and examined microscopically.

E. coli = experiment: MIC, further Brooklyn patient isolates: E. coli; format: cell-based; design: unit not given beside the values; settings: E. coli (n = 3071)
Description: (§1) Minimum inhibitory concentrations (MIC) were determined by reference Clinical and Laboratory Standards Institute (CLSI) broth microdilution methods per M7-A7 [2006]. Briefly, serial two-fold dilutions of Compound 1 and comparator AGs (together, “the test compounds”) were prepared at 2× concentration in appropriate diluent. The dilutions were mixed in 96-well assay plates with bacterial inoculum. Bacteria were suspended in sterile saline and added to each assay plate to obtain a final concentration of 5.5×10^5 CFU/mL. The plates were incubated at 35° C. for 20 hours in ambient air. […] After incubation, assay plates were read using a microtiter plate reader at 600 nm.
(§2) Further studies analyzed a greater number of unique patient isolates obtained from Brooklyn, N.Y. hospitals (including those species described above). These species included Acinetobacter, E. coli, Enterobacter, Klebsiella, and Pseudomonas.

Enterobacter = experiment: MIC, further Brooklyn patient isolates: Enterobacter; format: cell-based; design: unit not given beside the values; settings: Enterobacter (n = 206)
Description: as §1, §2

rat kidney [3] = experiment: Rat nephrotoxicity model: serum markers of GFR (BUN, serum creatinine); format: in vivo, Sprague-Dawley rats; settings: dose-response for BUN elevation

ALB, day 6 ([2]; 10 mg/kg): 4.0 g/dL
ALP, day 6 ([2]; 10 mg/kg): 670 U/L
AMYL, day 6 ([2]; 10 mg/kg): 1719 U/L
BUN, day 6 ([2]; 10 mg/kg): 16 mg/dL
CHOL, day 6 ([2]; 10 mg/kg): 78 mg/dL
Cre, day 6 ([2]; 10 mg/kg): 0.8 mg/dL
GLOB, day 6 ([2]; 10 mg/kg): 1.8 g/dL
GLU, day 6 ([2]; 10 mg/kg): 154 mg/dL
T-PRO, day 6 ([2]; 10 mg/kg): 5.9 g/dL
TBIL ([2]; 10 mg/kg): 0.1
TBIL, day 6 ([2]; 10 mg/kg): 0.1 mg/dL
ALB, day 6 ([2]; 30 mg/kg): 4.0 g/dL
ALP, day 6 ([2]; 30 mg/kg): 583 U/L
AMYL, day 6 ([2]; 30 mg/kg): 1658 U/L
BUN, day 6 ([2]; 30 mg/kg): 15 mg/dL
CA ([2]; 30 mg/kg): 11.2
CHOL, day 6 ([2]; 30 mg/kg): 81 mg/dL
Cre, day 6 ([2]; 30 mg/kg): 0.7 mg/dL
GLOB, day 6 ([2]; 30 mg/kg): 1.8 g/dL
GLU, day 6 ([2]; 30 mg/kg): 155 mg/dL
Organ weights Heart ([2]; 30 mg/kg): 1.44
Organ weights Kidney Rt. ([2]; 30 mg/kg): 2.1
Organ weights Liver ([2]; 30 mg/kg): 11.3
Organ weights Lung ([2]; 30 mg/kg): 2.96
Organ weights Pancreas ([2]; 30 mg/kg): 0.85
Organ weights testes ([2]; 30 mg/kg): 3.45
T-PRO, day 6 ([2]; 30 mg/kg): 5.8 g/dL
TBIL ([2]; 30 mg/kg): 0.1
TBIL, day 6 ([2]; 30 mg/kg): 0.1 mg/dL
ALB, day 6 ([2]; 100 mg/kg): 4.0 g/dL
ALP, day 6 ([2]; 100 mg/kg): 596 U/L
AMYL, day 6 ([2]; 100 mg/kg): 1560 U/L
BUN, day 6 ([2]; 100 mg/kg): 19 mg/dL
CA, day 6 ([2]; 100 mg/kg): 10.8 mg/dL
CHOL, day 6 ([2]; 100 mg/kg): 82 mg/dL
Cre ([2]; 100 mg/kg): 0.8
Cre, day 6 ([2]; 100 mg/kg): 0.7 mg/dL
GLOB, day 6 ([2]; 100 mg/kg): 1.6 g/dL
GLU, day 6 ([2]; 100 mg/kg): 148 mg/dL
T-PRO, day 6 ([2]; 100 mg/kg): 5.6 g/dL
TBIL ([2]; 100 mg/kg): 0.1
TBIL, day 6 ([2]; 100 mg/kg): 0.1 mg/dL
Structure (SMILES): NC[C@H]1O[C@H](O[C@H]2[C@H](O)[C@@H](O[C@H]3O[C@H](CO)[C@@H](O)[C@H](N)[C@H]3O)[C@H](N)C[C@@H]2N)[C@H](N)C[C@@H]1O [Tobramycin, tobramycin]
Histopathology score (0 to 5 Scale): Casts (rat kidney [1]; 10 mg/kg): 0 +/− 0
Histopathology score (0 to 5 Scale): Dilation (rat kidney [1]; 10 mg/kg): 0.4 +/− 0.9
Histopathology score (0 to 5 Scale): Inflammation (rat kidney [1]; 10 mg/kg): 0.4 +/− 0.9
Histopathology score (0 to 5 Scale): Regeneration (rat kidney [1]; 10 mg/kg): 1 +/− 1.4
Histopathology score (0 to 5 Scale): Casts (rat kidney [1]; 30 mg/kg): 0.8 +/− 0.4
Histopathology score (0 to 5 Scale): Dilation (rat kidney [1]; 30 mg/kg): 1.6 +/− 1.1
Histopathology score (0 to 5 Scale): Inflammation (rat kidney [1]; 30 mg/kg): 1.8 +/− 0.8
Histopathology score (0 to 5 Scale): Regeneration (rat kidney [1]; 30 mg/kg): 2.2 +/− 0.8
Histopathology score (0 to 5 Scale): Casts (rat kidney [1]; 100 mg/kg): 1.8 +/− 0.8
Histopathology score (0 to 5 Scale): Dilation (rat kidney [1]; 100 mg/kg): 1.6 +/− 1.1
Histopathology score (0 to 5 Scale): Inflammation (rat kidney [1]; 100 mg/kg): 2.4 +/− 0.9
Histopathology score (0 to 5 Scale): Regeneration (rat kidney [1]; 100 mg/kg): 3 +/− 0.7
ALT ([2]; 10 mg/kg): 41
ALT, day 6 ([2]; 10 mg/kg): 29 U/L
AST, day 6 ([2]; 10 mg/kg): 65 U/L
Body weight Day 1 ([2]; 10 mg/kg): 243 g
Body weight Day 2 ([2]; 10 mg/kg): 256 g
Body weight Day 3 ([2]; 10 mg/kg): 264 g
Body weight Day 4 ([2]; 10 mg/kg): 277 g
Body weight Day 5 ([2]; 10 mg/kg): 271 g
Body weight Day 6 ([2]; 10 mg/kg): 291 g
Body weight Day 7 ([2]; 10 mg/kg): 299 g
Body weight Day 8 ([2]; 10 mg/kg): 307 g
Body weight Day 9 ([2]; 10 mg/kg): 315 g
Body weight Day 10 ([2]; 10 mg/kg): 327 g
Body weight Day 11 ([2]; 10 mg/kg): 333 g
Body weight Day 12 ([2]; 10 mg/kg): 330 g
Body weight Day 13 ([2]; 10 mg/kg): 347 g
Body weight Day 14 ([2]; 10 mg/kg): 352 g
ALT, day 6 ([2]; 30 mg/kg): 32 U/L
AST, day 6 ([2]; 30 mg/kg): 65 U/L
Body weight Day 1 ([2]; 30 mg/kg): 250 g
Body weight Day 2 ([2]; 30 mg/kg): 256 g
Body weight Day 3 ([2]; 30 mg/kg): 264 g
Body weight Day 4 ([2]; 30 mg/kg): 270 g
Body weight Day 5 ([2]; 30 mg/kg): 280 g
Body weight Day 6 ([2]; 30 mg/kg): 288 g
Body weight Day 7 ([2]; 30 mg/kg): 294 g
Body weight Day 8 ([2]; 30 mg/kg): 295 g
Body weight Day 9 ([2]; 30 mg/kg): 307 g
Body weight Day 10 ([2]; 30 mg/kg): 318 g
Body weight Day 11 ([2]; 30 mg/kg): 323 g
Body weight Day 12 ([2]; 30 mg/kg): 321 g
Body weight Day 13 ([2]; 30 mg/kg): 321 g
Body weight Day 14 ([2]; 30 mg/kg): 330 g
ALT, day 6 ([2]; 100 mg/kg): 36 U/L
AST, day 6 ([2]; 100 mg/kg): 75 U/L
Body weight Day 1 ([2]; 100 mg/kg): 246 g
Body weight Day 2 ([2]; 100 mg/kg): 251 g
Body weight Day 3 ([2]; 100 mg/kg): 259 g
Body weight Day 4 ([2]; 100 mg/kg): 264 g
Body weight Day 5 ([2]; 100 mg/kg): 268 g
Body weight Day 6 ([2]; 100 mg/kg): 277 g
Body weight Day 7 ([2]; 100 mg/kg): 281 g
Body weight Day 8 ([2]; 100 mg/kg): 287 g
Body weight Day 9 ([2]; 100 mg/kg): 280 g
Body weight Day 10 ([2]; 100 mg/kg): 293 g
Body weight Day 11 ([2]; 100 mg/kg): 296 g
Body weight Day 12 ([2]; 100 mg/kg): 283 g
Body weight Day 13 ([2]; 100 mg/kg): 296 g
Body weight Day 14 ([2]; 100 mg/kg): 299 g

MIC50 (E. coli): ≦0.25
MIC90 (E. coli): ≦0.25
MIC50 (Enterobacter): ≦0.25
Structure (SMILES): CO/N=C(\C(=O)N[C@@H]1C(=O)N2C(C(=O)[O-])=C(C[N+]3(C)CCCC3)CS[C@H]12)c1csc(N)n1 [FEP, cefepime]

Structure (SMILES): CN[C@@H]1[C@@H](O[C@H]2O[C@H](CO)[C@@H](N)[C@H](O)[C@H]2O)OC2C[C@@H](N)[C@@H](O[C@H]3[C@H](O)[C@@H](O)[C@H](N)C[C@@H]3N)OC2[C@@H]1O (stereo partly drawn) [Apramycin, apramycin]
apparent relative nephrotoxicity (ranking) (rat kidney [3]): Neomycin≈Gentamicin>Tobramycin>Apramycin≈Paromomycin>Amikacin
Histopathology score (0 to 5 Scale): Casts (rat kidney [1]; 3 mg/kg): 0 +/− 0
Histopathology score (0 to 5 Scale): Dilation (rat kidney [1]; 3 mg/kg): 0 +/− 0
Histopathology score (0 to 5 Scale): Inflammation (rat kidney [1]; 3 mg/kg): 0.4 +/− 0.5
Histopathology score (0 to 5 Scale): Regeneration (rat kidney [1]; 3 mg/kg): 0 +/− 0
Histopathology score (0 to 5 Scale): Casts (rat kidney [1]; 10 mg/kg): 0 +/− 0
Histopathology score (0 to 5 Scale): Dilation (rat kidney [1]; 10 mg/kg): 0 +/− 0
Histopathology score (0 to 5 Scale): Inflammation (rat kidney [1]; 10 mg/kg): 0.4 +/− 0.5
Histopathology score (0 to 5 Scale): Regeneration (rat kidney [1]; 10 mg/kg): 0.6 +/− 1.3
Histopathology score (0 to 5 Scale): Casts (rat kidney [1]; 30 mg/kg): 0 +/− 0
Histopathology score (0 to 5 Scale): Dilation (rat kidney [1]; 30 mg/kg): 0 +/− 0
Histopathology score (0 to 5 Scale): Inflammation (rat kidney [1]; 30 mg/kg): 0.6 +/− 0.5
Histopathology score (0 to 5 Scale): Regeneration (rat kidney [1]; 30 mg/kg): 0.6 +/− 0.5
Histopathology score (0 to 5 Scale): Casts (rat kidney [1]; 100 mg/kg): 1.4 +/− 0.5
Histopathology score (0 to 5 Scale): Dilation (rat kidney [1]; 100 mg/kg): 0.6 +/− 0.5
Histopathology score (0 to 5 Scale): Inflammation (rat kidney [1]; 100 mg/kg): 2.4 +/− 0.5
Histopathology score (0 to 5 Scale): Regeneration (rat kidney [1]; 100 mg/kg): 2.4 +/− 0.5
